{
  "source": "patent US20080031818A1",
  "about": "“Use of Modulators of a Novel Form of Muscle Selective Calcineurin Interacting Protein (Mcip-1-38) as a Treatment for Cardiovascular Diseases” (GILEAD COLORADO, INC., priority 2004, published 2008)",
  "key": {"beta myosin heavy chain": {"system": "beta myosin heavy chain", "test": "Beta myosin heavy chain protein by cytoblot", "format": "cell-based, rat", "conditions": "NRVM, 48 hours exposure to PE, FIG. 10A", "procedure": "NRVM culture. For preparations of neonatal rat ventricular myocytes (NRVMs), hearts were removed from 10-20 newborn (1-2 days old) Sprague-Dawley rats. Isolated ventricles were pooled, minced and dispersed by three 20-minute incubations at 37° C. in Ads buffer (116 mM NaCl, 20 mM HEPES, 10 mM NaH2PO4, 5.5 mM glucose, 5 mM KCl, […], pH 7.4) containing collagenase Type II (65 units/ml, Worthington) and pancreatin (0.6 mg/ml, GibcoBRL). Dispersed cells were applied to a discontinuous gradient of 40.5% and 58.5% (v/v) Percoll (Amersham Biosciences), centrifuged, and myocytes collected from the interface layer. Myocyte preparations were pre-plated in Dulbecco's modified Eagle's medium (DMEM, Cellgro), supplemented with 10% (v/v) fetal bovine serum (FBS, HyClone), 4 mM L-glutamine and 1% penicillin/streptomycin for 1 hour at 37° C. to reduce fibroblast contamination, then plated at a density of 2.5′10^5 cells per well on 6-well tissue culture plates (or 10,000 cells/well on 96-well tissue culture plates) coated with a 0.2% (w/v) gelatin solution. After 24 hours in culture, myocyte preparations were transferred to serum-free maintenance medium (DMEM supplemented with 0.1% (v/v) Nutridoma (Roche), L-glutamine and penicillin/streptomycin). […]\nMyosin heavy chain protein quantitation by cytoblot. […] Plates were read in a 96-well luminometer (Packard Fusion)."}, "[1]": {"system": "neonatal rat ventricular myocytes (NRVM)", "test": "Cardiomyocyte cell volume (Coulter counter)", "format": "cell-based", "conditions": "48 hours exposure to PE, versus untreated controls, FIG. 9", "procedure": "NRVM culture. For preparations of neonatal rat ventricular myocytes (NRVMs), hearts were removed from 10-20 newborn (1-2 days old) Sprague-Dawley rats. Isolated ventricles were pooled, minced and dispersed by three 20-minute incubations at 37° C. in Ads buffer (116 mM NaCl, 20 mM HEPES, 10 mM NaH2PO4, 5.5 mM glucose, 5 mM KCl, […], pH 7.4) containing collagenase Type II (65 units/ml, Worthington) and pancreatin (0.6 mg/ml, GibcoBRL). Dispersed cells were applied to a discontinuous gradient of 40.5% and 58.5% (v/v) Percoll (Amersham Biosciences), centrifuged, and myocytes collected from the interface layer. […]\nHypertrophy and toxicity assays. Primary hypertrophy endpoints for NRVM included quantitation of ANF secretion, total cellular protein and cell volume. ANF in media supernatants was quantitated by competitive ELISA using a monoclonal anti-ANF antibody (Biodesign) and a biotinylated ANF peptide (Phoenix Peptide). Total cellular protein was quantitated by standard Coomassie dye-binding assay; cells were lysed in protein assay reagent (BioRad) and absorbance at A595 was measured after 1 hour. […] After recovery by centrifugation, cell pellets were washed in PBS, resuspended in 10 ml IsoFlow electrolyte solution (Beckman-Coulter) and analyzed with a Z2 Coulter Particle Counter and Size Analyzer (Beckman-Coulter). […]"}},
  "data": [
    {"molecule": "CNC[C@H](O)c1cccc(O)c1", "note": "[phenylephrine]", "values": [
      {"measurement": "beta myosin protein expression", "setting": "beta myosin heavy chain", "value": "increased beta myosin protein expression by several fold"},
      {"measurement": "increase in cell volume", "setting": "[1]", "value": "approximately 50%"}
    ]}
  ]
}
